Assay: Hypotensive effect, systolic pressure by indirect tail-cuff method without anesthesia, oral administration
Type: in vivo, male rats, 10- to 11-week-old
Conditions: rats, 10 mg/kg, suspended in 10% HCO-60
Description: An experiment was conducted to investigate the hypotensive effects of the dihydropyridine derivatives (I) and acid addition salts thereof on 10- to 11-week-old male rats (3 to 5 animals per group).
For blood pressure determination, systolic pressure was measured without anesthesia by an indirect tail-cuff method using a sphygmomanometer (PE-300, Narco Bio-System).
Each of the test compounds was suspended in 10% HCO-60 (polyoxyethylated castor oil produced by Nikko Chemicals K.K.) and administered orally to the animals in a dose of 10 mg/kg. Blood pressure measurements were conducted at predetermined time intervals.

## COC(=O)C1=C(C)NC(C)=C(C(=O)OCCN(C)Cc2ccccc2)C1c1cccc([N+](=O)[O-])c1 (centres unmarked) [nicardipine]
  50% recovery time (time required for the reduced blood pressure to return to half the maximal reduction): 3.1 h
  maximum blood pressure fall: 20%

Reference: patent publication US4910195A, “Dihydropyridine derivatives” (Green Cross Corporation, priority 1986, dated 1990)
